From patent US20020193252A1, “Weeding method with sodium hydrogen carbonate” (The Hiraoka Environmental Science Laboratory, priority 2001, published 2002)
Read-outs that look alike come from different tables or passages of the source.

How the values were obtained:
[1] = test system: Equisetum arvense and Taraxacum; conditions: 400 ml/m^2 sprayed on days 0,7,14,21, weeds cut on day 54
From the text: (§1) A mixture of Equisetum arvense and Taraxacum having an average height of about 5 cm and Imperata cylindrica having an average height of about 5 cm in a test field having an area of 0.5 m^2 in Yokohama-city, Kanagawa-prefecture, Japan were subjected to the following field weeding test from the last third of July to the first third of November. […] Incidentally, the area ratio of weeds was assumed as 100% when the weeds proliferated to such an extent that they completely concealed the soil surface.
(§2) A saturated aqueous solution of sodium hydrogen carbonate was sprayed to each test field in an amount of 400 ml/m^2 by a watering pot, and then sprayed in the same way after 7 days, 14 days and 21 days, respectively. The area ratio and average height of weeds were measured by the naked eye after 26 days from the start of spraying. The weeds were totally cut after 54 days from the start of spraying. Thereafter, the weeds were left to grow without spraying an aqueous solution of sodium hydrogen carbonate. The area ratio and average height of weeds were measured by the naked eye after 64 days, 67 days, 73 days, 78 days, 86 days, 91 days and 95 days, respectively, from the start of spraying. For comparison, a mixture of Equisetum arvense and Taraxacum and Imperata cylindrica, to which an aqueous solution of sodium hydrogen carbonate was not sprayed, were subjected to the same measurement with respect to an area ratio and an average height.

Imperata cylindrica = conditions: 400 ml/m^2 sprayed on days 0,7,14,21, weeds cut on day 54
From the text: as §1, §2

[2] = test system: Gramineae weeds except for grass (Zoysia japonica); conditions: spraying once a week
[3] = saturated aqueous solution
[4] = test system: Equisetaceae weeds, Leguminosae weeds and wide leaves weeds
grass = conditions: 400 mL/m^2; for Killing Rate of Weeds: after 9 days from spraying
From the text: (§3) A mixture of Equisetum arvense and Taraxacum having an average height of about 20 cm and grass having an average height of about 10 cm in a test field having an area of 0.5 m^2 in Yokohama-city, Kanagawa-prefecture, Japan were subjected to a field weeding test by spraying an aqueous solution of sodium hydrogen carbonate with a watering pot in the last third of October.
(§4) An aqueous solution of sodium hydrogen carbonate having a concentration of 2.5 weight %, 5.0 weight %, 8.0 weight % and 10.0 weight %, respectively, was uniformly sprayed to a mixture of Equisetum arvense and Taraxacum and grass in an amount of 400 mL/m^2 for each. […] The killing degree of the weeds was measured by the naked eye after 9 days from spraying to determine the killing rate of weeds in the same manner as in EXAMPLE 1.

[5] = test system: Equisetum arvense and Taraxacum; conditions: 400 mL/m^2; for Killing Rate of Weeds: after 9 days from spraying
From the text: as §3, §4

[6] = test system: Weeds mainly consisting of Japanese nutmeg, Coix lacryma-jobi, Pueraria lobata and Solidago serotina; conditions: 70 g/L, 16 litter/m^2, 150 kgf/cm^2, 60 second/m^2; weeds about 60 cm; leaves turned yellow or black
[7] = test system: Weeds mainly consisting of Pueraria lobata, Cayratia japonica and Solidago serotina; conditions: 80° C., 140 g/L, 16 litter/m^2, 150 kgf/cm^2, 60 second/m^2; weeds about 60 cm; leaves turned black
[8] = 2.5-10.0 weight % solution, last third of October

O=C([O-])O.[Na+] [sodium hydrogen carbonate]
Area Ratio of Weeds ([1]; 0 days passed): 50% | Average Height ([1]; 0 days passed): 5 cm | Area Ratio of Weeds ([1]; 7 days passed): 5% | Average Height ([1]; 7 days passed): 0 cm | Area Ratio of Weeds ([1]; 14 days passed): 5% | Average Height ([1]; 14 days passed): 0 cm | Area Ratio of Weeds ([1]; 21 days passed): 5% | Average Height ([1]; 21 days passed): 0 cm | Area Ratio of Weeds ([1]; 26 days passed): 5% | Average Height ([1]; 26 days passed): 0 cm | Area Ratio of Weeds ([1]; 54 days passed): 0% | Average Height ([1]; 54 days passed): 0 cm | Area Ratio of Weeds ([1]; 64 days passed): 0% | Average Height ([1]; 64 days passed): 0 cm | Area Ratio of Weeds ([1]; 67 days passed): 0% | Average Height ([1]; 67 days passed): 0 cm | Area Ratio of Weeds ([1]; 73 days passed): 5% | Average Height ([1]; 73 days passed): 5 cm | Area Ratio of Weeds ([1]; 78 days passed): 10% | Average Height ([1]; 78 days passed): 7 cm | Area Ratio of Weeds ([1]; 86 days passed): 10% | Average Height ([1]; 86 days passed): 10 cm | Area Ratio of Weeds ([1]; 91 days passed): 20% | Average Height ([1]; 91 days passed): 10 cm | Area Ratio of Weeds ([1]; 95 days passed): 20% | Average Height ([1]; 95 days passed): 10 cm | Area Ratio of Weeds (Imperata cylindrica; 0 days passed): 5% | Average Height (Imperata cylindrica; 0 days passed): 5 cm | Area Ratio of Weeds (Imperata cylindrica; 7 days passed): 10% | Average Height (Imperata cylindrica; 7 days passed): 15 cm | Area Ratio of Weeds (Imperata cylindrica; 14 days passed): 30% | Average Height (Imperata cylindrica; 14 days passed): 25 cm | Area Ratio of Weeds (Imperata cylindrica; 21 days passed): 50% | Average Height (Imperata cylindrica; 21 days passed): 45 cm | Area Ratio of Weeds (Imperata cylindrica; 26 days passed): 50% | Average Height (Imperata cylindrica; 26 days passed): 50 cm | Area Ratio of Weeds (Imperata cylindrica; 54 days passed): 0% | Average Height (Imperata cylindrica; 54 days passed): 0 cm | Area Ratio of Weeds (Imperata cylindrica; 64 days passed): 0% | Average Height (Imperata cylindrica; 64 days passed): 0 cm | Area Ratio of Weeds (Imperata cylindrica; 67 days passed): 0% | Average Height (Imperata cylindrica; 67 days passed): 0 cm | Area Ratio of Weeds (Imperata cylindrica; 73 days passed): 0% | Average Height (Imperata cylindrica; 73 days passed): 0 cm | Area Ratio of Weeds (Imperata cylindrica; 78 days passed): 5% | Average Height (Imperata cylindrica; 78 days passed): 5 cm | Area Ratio of Weeds (Imperata cylindrica; 86 days passed): 5% | Average Height (Imperata cylindrica; 86 days passed): 7 cm | Area Ratio of Weeds (Imperata cylindrica; 91 days passed): 5% | Average Height (Imperata cylindrica; 91 days passed): 7 cm | Area Ratio of Weeds (Imperata cylindrica; 95 days passed): 5% | Average Height (Imperata cylindrica; 95 days passed): 10 cm | duration of spraying until weeds start to die [2]: 2-3 weeks | pH [3]: about 8.2 | time after spraying until weeds start to die ([4]; in autumn): 4 to 5 days | time after spraying until weeds start to die ([4]; in summer): 1 to 2 days | time after spraying from which part of grass started to die with leaves turned yellow (grass; [8]): 2 to 3 days | Killing Rate of Weeds (grass; concentration 5.0 weight %): 50% | Killing Rate of Weeds (grass; concentration 8.0 weight %): 70% | Killing Rate of Weeds (grass; concentration 10.0 weight %): 85% | Killing Rate of Weeds (grass; concentration 25 weight %): 40% | time after spraying from which part of the weeds started to die with leaves turned black [5, 8]: 2 to 3 days | Killing Rate of Weeds ([5]; concentration 5.0 weight %): 30% | Killing Rate of Weeds ([5]; concentration 8.0 weight %): 65% | Killing Rate of Weeds ([5]; concentration 10.0 weight %): 80% | Killing Rate of Weeds ([5]; concentration 25 weight %): 10% | state of weeds the next day of treatment [6]: killed | state of weeds the next day of treatment [7]: killed
